Experiment [1] concerns the target T1, PPARG/RXRA LBD heterodimer (Homo sapiens, UniProt P37231).
T1 construct: His-TEV-Q203-Y477; Uniprot ID P37231-2; made in house; host or cells: E. coli
The experiment in a line: PPARγ-NCOR1 recruitment assay (TR-FRET, biotinylated NCOR1 ID2 peptide). Format: biochemical. The settings on record: 80 nM Rosiglitazone, 3 hours, read-out: PPARG-NCOR recruitment assay EC50. The gist of the method: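 2 nM each of E. coli-expressed PPARG LBD (Q203-Y477) and RXRA LBD (WT or S427F, E228-T462) with biotinylated NCOR1 ID2 peptide, incubated 3 h; TR-FRET read at Ex/Em 615/665. Ratios normalized to DMSO (0%) and T0070907 maximum (100%) for EC50 and maximal recruitment.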
T1 sequence (O75376 2251-2273 partner, one chain of several): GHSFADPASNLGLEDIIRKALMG

Experiment [2] deals with T2, PPARG/RXRA LBD heterodimer (Homo sapiens, UniProt P37231).
T2 construct: His-TEV-Q203-Y477; Uniprot ID P37231-2; made in house; host or cells: E. coli
T2 sequence (P37231 203-477 isoform P37231-2): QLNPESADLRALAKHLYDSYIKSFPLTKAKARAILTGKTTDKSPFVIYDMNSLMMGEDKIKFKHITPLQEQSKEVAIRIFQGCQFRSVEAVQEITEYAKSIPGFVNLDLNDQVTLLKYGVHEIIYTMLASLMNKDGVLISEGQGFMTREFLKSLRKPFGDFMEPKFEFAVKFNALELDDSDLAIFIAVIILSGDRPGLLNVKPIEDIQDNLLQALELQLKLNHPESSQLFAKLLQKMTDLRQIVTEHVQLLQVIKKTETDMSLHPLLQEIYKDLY
T2 sequence (P19793 228-462 partner limits assumed): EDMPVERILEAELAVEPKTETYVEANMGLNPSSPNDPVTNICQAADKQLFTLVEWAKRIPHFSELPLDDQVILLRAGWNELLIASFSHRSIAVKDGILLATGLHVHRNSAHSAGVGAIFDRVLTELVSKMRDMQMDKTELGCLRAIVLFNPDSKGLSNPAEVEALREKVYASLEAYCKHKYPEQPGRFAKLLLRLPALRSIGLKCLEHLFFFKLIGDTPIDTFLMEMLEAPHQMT
Nature of the experiment: PPARγ-MED1 blockade assay (TR-FRET, biotinylated MED1 LxxLL peptide). Type of experiment: biochemical. The settings on record: WT PPARG LBD/WT RXRA LBD, 80 nM Rosiglitazone, 3 hours. The gist of the method: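 TR-FRET measuring biotinylated MED1 LxxLL peptide association with 2 nM each His-PPARG LBD (Q203-Y477) and Flag-RXRA LBD (E228-T462), E. coli expressed. Read after 3 h incubation; ratios normalized to DMSO (0%) and GW9662 minimum (100%) for IC50 and maximal MED1 repulsion.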

The subject of experiment [3] is ANGPTL4, a PPARG target gene, in HT1197 (RXRA S427F mutation) cells. The experiment in a line: Bladder cancer pharmacodynamic assay, HT1197 cell assay (qPCR of ANGPTL4). Type of experiment: cell-based. The settings on record: Homo sapiens, 24 hours, 100 nM compound, relative to DMSO control. The gist of the method: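 5637 (PPARG amplified) and HT1197 (RXRA S427F) cells treated 24 h with PPARG inverse agonists. FABP4 and ANGPTL4 expression measured by qPCR, normalised to TBP, and reported relative to DMSO control by ΔΔCt.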
For orientation: Quantitative PCR measures a nucleic acid by following its amplification.

For the compound `CC(C)(O)Cn1cc(-c2c(F)cc3[nH]c(-c4cc(C#N)ccc4Cl)cc(=O)c3c2F)cn1` [Example 48, 4-chloro-3-(5,7-difluoro-6-(1-(2-hydroxy-2-methylpropyl)-1H-pyrazol-4-yl)-4-oxo-1,4-dihydroquinolin-2-yl)benzonitrile], the EC50 in experiment [1] and in experiment [2] was 1000 to 10000 nM in each case. Further, in experiment [3], the inhibition (in general, the relative decrease from the control value, in per cent) at 0.1 µM is 47%.
`CO[C@H]1CCN(c2c(F)cc3[nH]c(-c4cc(C#N)ccc4Cl)cc(=O)c3c2F)C1` [Example 104, (S)-4-chloro-3-(5,7-difluoro-6-(3-methoxypyrrolidin-1-yl)-4-oxo-1,4-dihydroquinolin-2-yl)benzonitrile]: the EC50 in experiment [1] and in experiment [2] was 100 to 1000 nM each time. The compound further gave an inhibition at 0.1 µM in experiment [3] of 78%.
For `CN1CCN(c2c(F)cc3[nH]c(-c4cc(C#N)ccc4Cl)cc(=O)c3c2F)CC1` [Example 19, 4-chloro-3-(5,7-difluoro-6-(4-methylpiperazin-1-yl)-4-oxo-1,4-dihydroquinolin-2-yl)benzonitrile], the EC50 in experiment [1] and in experiment [2] was 1000 to 10000 nM each time. At 0.1 µM the inhibition in experiment [3] was 75%.
For the compound `N#Cc1ccc(Cl)c(-c2cc(=O)c3c(F)c(N4CCOCC4)c(F)cc3[nH]2)c1` [Example 107, 4-chloro-3-(5,7-difluoro-6-morpholino-4-oxo-1,4-dihydroquinolin-2-yl)benzonitrile], the EC50 in experiment [1] and in experiment [2] was 100 to 1000 nM in each case. The compound further came in with an inhibition at 0.1 µM in experiment [3] of 80%.
As for `N#Cc1ccc(Cl)c(-c2cc(=O)c3ccc(Cl)cc3[nH]2)c1` [Example 31, 4-chloro-3-(7-chloro-4-oxo-1,4-dihydroquinolin-2-yl)benzonitrile], the EC50 in experiment [1] and in experiment [2] was 100 to 1000 nM throughout. For the same compound, 0.1 µM produced 90% inhibition in experiment [3].
On to `Cc1cc(-c2c(F)cc3[nH]c(-c4cc(C#N)ccc4Cl)cc(=O)c3c2F)ccn1` [Example 40, 4-chloro-3-(5,7-difluoro-6-(2-methylpyridin-4-yl)-4-oxo-1,4-dihydroquinolin-2-yl)benzonitrile], for which the EC50 in experiment [1] and in experiment [2] was 100 to 1000 nM in each case. The same compound gave an inhibition at 0.1 µM in experiment [3] of 72%.
With `Cc1c(F)c(F)cc2[nH]c(-c3cc(C#N)ccc3Cl)cc(=O)c12` [Example 24, 4-chloro-3-(6,7-difluoro-5-methyl-4-oxo-1,4-dihydroquinolin-2-yl)benzonitrile], the EC50 in experiment [1] and in experiment [2] was 100 to 1000 nM in each case. At 0.1 µM the inhibition in experiment [3] was 69%.
Consider `N#Cc1ccc(Cl)c(-c2cc(=O)c3c(F)c(N4CCN(CC(F)(F)F)CC4)c(F)cc3[nH]2)c1` [Example 20, 4-chloro-3-(5,7-difluoro-4-oxo-6-(4-(2,2,2-trifluoroethyl)piperazin-1-yl)-1,4-dihydroquinolin-2-yl)benzonitrile], for which the EC50 in experiment [1] and in experiment [2] was 100 to 1000 nM throughout. For the same compound, in experiment [3], the inhibition at 0.1 µM amounted to 91%.
Take `CN(C)[C@H]1CCN(c2c(F)cc3[nH]c(-c4cc(C#N)ccc4Cl)cc(=O)c3c2F)C1` [Example 108, (S)-4-chloro-3-(6-(3-(dimethylamino)pyrrolidin-1-yl)-5,7-difluoro-4-oxo-1,4-dihydroquinolin-2-yl)benzonitrile]: the EC50 in experiment [1] and in experiment [2] was 1000 to 10000 nM each time. In experiment [3], the inhibition at 0.1 µM stood at 65%.
As to `N#Cc1ccc(Cl)c(-c2cc(=O)c3c(F)c(-c4ccncc4)c(F)cc3[nH]2)c1` [Example 23, 4-chloro-3-(5,7-difluoro-4-oxo-6-(pyridin-4-yl)-1,4-dihydroquinolin-2-yl)benzonitrile], the EC50 in experiment [1] and in experiment [2] was 100 to 1000 nM each time. The compound further showed an inhibition at 0.1 µM in experiment [3] of 55%.
On to `CNC(=O)c1ccc(-c2c(F)cc3[nH]c(-c4cc(C#N)ccc4Cl)cc(=O)c3c2F)cc1` [Example 79, 4-(2-(2-chloro-5-cyanophenyl)-5,7-difluoro-4-oxo-1,4-dihydroquinolin-6-yl)-N-methylbenzamide], for which the EC50 in experiment [1] and in experiment [2] was 100 to 1000 nM throughout. In experiment [3], this compound yielded an inhibition at 0.1 µM of 58%.
`CN(C)C(=O)C1CN(c2c(F)cc3[nH]c(-c4cc(C#N)ccc4Cl)cc(=O)c3c2F)C1` [Example 102, 1-(2-(2-chloro-5-cyanophenyl)-5,7-difluoro-4-oxo-1,4-dihydroquinolin-6-yl)-N,N-dimethylazetidine-3-carboxamide]: the EC50 in experiment [1] and in experiment [2] was 1000 to 10000 nM each time. For the same compound, the inhibition at 0.1 µM in experiment [3] is 81%.
Turning to `N#Cc1cccc(-c2c(F)cc3[nH]c(-c4cc(C#N)ccc4Cl)cc(=O)c3c2F)c1` [Example 41, 4-chloro-3-(6-(3-cyanophenyl)-5,7-difluoro-4-oxo-1,4-dihydroquinolin-2-yl)benzonitrile], the results for the EC50 in experiment [1] and in experiment [2] were 10 to 100 nM and 100 to 1000 nM, respectively. In experiment [3], this compound had an inhibition at 0.1 µM of 72%.
For `CN(C)C(=O)c1c(F)ccc(-c2c(F)cc3[nH]c(-c4cc(C#N)ccc4Cl)cc(=O)c3c2F)c1F` [Example 83, 3-(2-(2-chloro-5-cyanophenyl)-5,7-difluoro-4-oxo-1,4-dihydroquinolin-6-yl)-2,6-difluoro-N,N-dimethylbenzamide] the same measures were 100 to 1000 nM, 100 to 1000 nM and 76%.
Take `CC(=O)N1CCN(c2c(F)cc3[nH]c(-c4cc(C#N)ccc4Cl)cc(=O)c3c2F)CC1` [Example 96, 3-(6-(4-acetylpiperazin-1-yl)-5,7-difluoro-4-oxo-1,4-dihydroquinolin-2-yl)-4-chlorobenzonitrile]: the EC50 in experiment [1] and in experiment [2] was 1000 to 10000 nM in each case. In experiment [3], the inhibition at 0.1 µM stood at 82%.
On to `CN1CC2(C1)CN(c1c(F)cc3[nH]c(-c4cc(C#N)ccc4Cl)cc(=O)c3c1F)C2` [Example 99, 4-chloro-3-(5,7-difluoro-6-(6-methyl-2,6-diazaspiro[3.3]heptan-2-yl)-4-oxo-1,4-dihydroquinolin-2-yl)benzonitrile], for which the EC50 in experiment [1] and in experiment [2] was more than 10000 nM in each case. This compound displayed an inhibition at 0.1 µM in experiment [3] of 59%.
Turning to `N#Cc1ccc(Cl)c(-c2cc(=O)c3c(F)c(-c4ccc5c(c4)NC(=O)C5)c(F)cc3[nH]2)c1` [Example 56, 4-chloro-3-(5,7-difluoro-4-oxo-6-(2-oxoindolin-6-yl)-1,4-dihydroquinolin-2-yl)benzonitrile], the EC50 in experiment [1] and in experiment [2] was 100 to 1000 nM in each case. In experiment [3], the inhibition at 0.1 µM was determined as 26%.
In the case of `N#Cc1ccc(Cl)c(-c2cc(=O)c3c(F)c(-c4cccc(C(=O)O)c4)c(F)cc3[nH]2)c1` [Example 74, 3-(2-(2-chloro-5-cyanophenyl)-5,7-difluoro-4-oxo-1,4-dihydroquinolin-6-yl)benzoic acid], the 50% effective concentration (EC50) in experiment [1] and in experiment [2] was 100 to 1000 nM in each case. This compound also came in with an inhibition at 0.1 µM in experiment [3] of 12%.
For the compound `N#Cc1ccc(Cl)c(-c2cc(=O)c3c(F)c(-c4cc[nH]n4)c(F)cc3[nH]2)c1` [Example 97, 4-chloro-3-(5,7-difluoro-4-oxo-6-(1H-pyrazol-3-yl)-1,4-dihydroquinolin-2-yl)benzonitrile], the EC50 in experiment [1] and in experiment [2] was 100 to 1000 nM in each case. Also, the inhibition at 0.1 µM in experiment [3] was 52%.

The values are drawn from patent US20240166624A1, “PPARG INVERSE AGONISTS AND USES THEREOF” (Flare Therapeutics Inc., priority 2021, published 2024).
